Test results from PMC8000041, “New Insights into the Metabolism of the Flavanones Eriocitrin and Hesperidin: A Comparative Human Pharmacokinetic Study” (Antioxidants, 2021).

Assays:
[1] = Urinary excretion of flavanone-derived metabolites after single intake of lemon or orange extract (UPLC-ESI-QTOF-MS); type: in vivo, human; conditions: for Occurrence Urine LE (number of volunteers in whom the metabolite was detected): after consuming lemon extract; for Occurrence Urine LE (number of volunteers in whom the metabolite was detected) / Occurrence Urine OE (number of volunteers in whom the metabolite was detected): n = 16 volunteers; for Occurrence Urine OE (number of volunteers in whom the metabolite was detected): after consuming orange extract; for Urinary excretion F1: urine fraction 0-4 h; for Urinary excretion F1 / Urinary excretion Total F / Urinary excretion F2 / Urinary excretion F3 / Urinary excretion F4: mean ± SD; for Urinary excretion Total F: sum of fractions F1-F4 (24 h); for Urinary excretion F2: urine fraction 4-8 h; for Urinary excretion F3: urine fraction 8-10 h; for Urinary excretion F4: urine fraction 10-24 h
Excerpt: Secondary endpoints involved the evaluation of post-prandial changes in several biomarkers dealing with metabolism, inflammation, and oxidative stress after a high-fat-high-sugars meal. The design was a randomized pharmacokinetic, double-blind, crossover, single-dose trial consisted of 2 test-phases. The volunteers were randomly allocated into two groups using a computerized random number list. Each group consumed one of the citrus extracts by following a test-phase that lasted for 1 day for blood sampling and urine collection, a 2-week washout period between each test phase, and crossover before consuming the other extract. The volunteers were instructed to avoid the consumption of flavanone-containing products, from a list provided by the researchers, for 1 week before the study and during the wash-out phase (citrus fruit juices, tomatoes, tomato-based sauces (like ‘ketchup’), peppers, almonds, etc.). […] The 3 capsules provided a total of 1.95 g orange extract, containing 260 mg hesperidin, and 3.1 g lemon extract, containing 260 mg eriocitrin. […] Untreated urine samples were aliquoted and frozen at −80 °C for up to 4 weeks until analyses, avoiding freeze-thaw cycles to avoid metabolites’ deconjugation. Moreover, three measurements of blood pressure and heart rate were taken before each time-point of blood withdrawal. […] A previously validated method for analyzing phenolic metabolites in biological samples, including flavanone-derived metabolites, was used. […] After centrifugation at 14,000× g for 10 min at 4 °C, the supernatant was evaporated in a speed vacuum concentrator. Finally, samples were re-suspended in 100 µL of methanol, filtered through a 0.22 µm cellulose filters before analysis by UPLC- ESI-QTOF-MS. […] A targeted screening strategy was applied to identify metabolites that could be present after consuming the citrus extracts. Twenty-eight possible compounds were browsed in all the samples. The list of compounds included the polyphenols present in the extracts, with particular focus on the flavanone rutinosides hesperidin and eriocitrin, their respective aglycones hesperetin, and eriodictyol, as well as their derived phase-II conjugates (glucuronides, sulfates, sulfoglucuronides, etc.). The exact mass of each proposed compound was extracted using an extraction window of 0.01 m/z. The metabolites hesperetin 7-O-glucuronide, hesperetin 3′-O-glucuronide, hesperetin 3-O-sulfate, naringenin 4′-O-glucuronide, and naringenin 7′-O-glucuronide were quantified with their corresponding standards. […] The parent phenolic compounds were quantified with their corresponding standards. In the case of some relevant conjugated metabolites, which standards were not available (eriodictyol and homoeriodictyol conjugates), their quantification was achieved by using relative response factors (RRFs) as previously described. Briefly, RRFs are useful to check the different responses of metabolites in the mass spectrometer vs. their UV signal. While the ionization response of free vs. conjugated forms is usually very different, their UV signal response is quite similar. To this purpose, we injected in a HPLC-DAD-ESI-Q (MS) the plasma samples (n = 5) with the highest concentrations of those conjugated metabolites. Concentrations were calculated by integrating the area from their corresponding UV peaks and compared with the UV peak area of a known concentration of their corresponding available parent compounds (eriodictyol and homoeriodictyol). The concentrations calculated were used to compare the MS response for each conjugated-aglycone pair.

[2] = Plasma metabolites and pharmacokinetics after single intake of lemon or orange extract (UPLC-ESI-QTOF-MS, non-compartmental analysis); type: in vivo, human; conditions: for Occurrence Plasma LE (number of volunteers in whom the metabolite was detected): after consuming lemon extract; for Occurrence Plasma LE (number of volunteers in whom the metabolite was detected) / Occurrence Plasma OE (number of volunteers in whom the metabolite was detected): n = 16 volunteers; for Occurrence Plasma OE (number of volunteers in whom the metabolite was detected): after consuming orange extract; for AUC(0-t) / Cmax / Tmax: after lemon extract, mean ± SD
Excerpt: Secondary endpoints involved the evaluation of post-prandial changes in several biomarkers dealing with metabolism, inflammation, and oxidative stress after a high-fat-high-sugars meal. The design was a randomized pharmacokinetic, double-blind, crossover, single-dose trial consisted of 2 test-phases. The volunteers were randomly allocated into two groups using a computerized random number list. Each group consumed one of the citrus extracts by following a test-phase that lasted for 1 day for blood sampling and urine collection, a 2-week washout period between each test phase, and crossover before consuming the other extract. The volunteers were instructed to avoid the consumption of flavanone-containing products, from a list provided by the researchers, for 1 week before the study and during the wash-out phase (citrus fruit juices, tomatoes, tomato-based sauces (like ‘ketchup’), peppers, almonds, etc.). […] The 3 capsules provided a total of 1.95 g orange extract, containing 260 mg hesperidin, and 3.1 g lemon extract, containing 260 mg eriocitrin. […] Plasma samples were obtained by centrifugation of peripheral venous blood at 14,000× g for 15 min at 4 °C and immediately frozen at −80 °C. Glucose, total cholesterol, HDL-cholesterol, LDL-cholesterol, triglycerides, insulin, homeostatic model assessment insulin resistance (HOMA-IR), gamma-glutamyl transferase (GGT), and alanine aminotransferase (ALT) were determined as previously reported. […] A previously validated method for analyzing phenolic metabolites in biological samples, including flavanone-derived metabolites, was used. […] After centrifugation at 14,000× g for 10 min at 4 °C, the supernatant was evaporated in a speed vacuum concentrator. Finally, samples were re-suspended in 100 µL of methanol, filtered through a 0.22 µm cellulose filters before analysis by UPLC- ESI-QTOF-MS. A targeted screening strategy was applied to identify metabolites that could be present after consuming the citrus extracts. Twenty-eight possible compounds were browsed in all the samples. The list of compounds included the polyphenols present in the extracts, with particular focus on the flavanone rutinosides hesperidin and eriocitrin, their respective aglycones hesperetin, and eriodictyol, as well as their derived phase-II conjugates (glucuronides, sulfates, sulfoglucuronides, etc.). The exact mass of each proposed compound was extracted using an extraction window of 0.01 m/z. The metabolites hesperetin 7-O-glucuronide, hesperetin 3′-O-glucuronide, hesperetin 3-O-sulfate, naringenin 4′-O-glucuronide, and naringenin 7′-O-glucuronide were quantified with their corresponding standards. […] The parent phenolic compounds were quantified with their corresponding standards. In the case of some relevant conjugated metabolites, which standards were not available (eriodictyol and homoeriodictyol conjugates), their quantification was achieved by using relative response factors (RRFs) as previously described. Briefly, RRFs are useful to check the different responses of metabolites in the mass spectrometer vs. their UV signal. While the ionization response of free vs. conjugated forms is usually very different, their UV signal response is quite similar. To this purpose, we injected in a HPLC-DAD-ESI-Q (MS) the plasma samples (n = 5) with the highest concentrations of those conjugated metabolites. Concentrations were calculated by integrating the area from their corresponding UV peaks and compared with the UV peak area of a known concentration of their corresponding available parent compounds (eriodictyol and homoeriodictyol). The concentrations calculated were used to compare the MS response for each conjugated-aglycone pair. Statistical analyses were carried out using the SPSS Software, version 23.0 (SPSS Inc., Chicago, IL, USA). Data are expressed as mean ± SD. The empirical distribution of data with the normality assumption was tested with the Shapiro-Wilk test. […]

[3] = parameters: method as in PMID 28970059; conditions: eriocitrin vs. hesperidin ref 28; cited from earlier work
[4] = lemon extract (3.1 g, 260 mg eriocitrin)

Row | Compound | Occurrence Urine LE (number of volunteers in whom the metabolite was detected) [1] | Occurrence Urine OE (number of volunteers in whom the metabolite was detected) [1] | Occurrence Plasma LE (number of volunteers in whom the metabolite was detected) [2] | Occurrence Plasma OE (number of volunteers in whom the metabolite was detected) [2] | Solubility [3] | Urinary excretion F1 [1, 4] [µg/mg creatinine] | Urinary excretion Total F ([1]; lemon extract) [µg/mg creatinine] | Urinary excretion F2 ([1]; lemon extract) [µg/mg creatinine] | Urinary excretion F3 ([1]; lemon extract) [µg/mg creatinine] | Urinary excretion F4 ([1]; lemon extract) [µg/mg creatinine] | Urinary excretion F1 ([1]; orange extract (1.95 g, 260 mg hesperidin)) [µg/mg creatinine] | Urinary excretion Total F ([1]; orange extract) [µg/mg creatinine] | Urinary excretion F2 ([1]; orange extract) [µg/mg creatinine] | Urinary excretion F3 ([1]; orange extract) [µg/mg creatinine] | Urinary excretion F4 ([1]; orange extract) [µg/mg creatinine] | AUC(0-t) [2] [µM·h] | Cmax [2] [nM] | Tmax [2] [h]
1 | COc1cc([C@@H]2CC(=O)c3c(O)cc(O)cc3O2)ccc1O [M16, Homoeriodictyol] | 12 | 1 | 15 | 1 |  |  |  |  |  |  |  |  |  |  |  |  |  | 
2 | COc1ccc([C@@H]2CC(=O)c3c(O)cc(O)cc3O2)cc1O [M17, Hesperetin] | 5 | 8 | 8 | 3 |  |  |  |  |  |  |  |  |  |  |  |  |  | 
3 | C[C@@H]1O[C@@H](OC[C@H]2O[C@@H](Oc3cc(O)c4c(c3)O[C@H](c3ccc(O)c(O)c3)CC4=O)[C@H](O)[C@@H](O)[C@@H]2O)[C@H](O)[C@H](O)[C@H]1O [eriocitrin, Eriocitrin] |  |  |  |  | higher solubility |  |  |  |  |  |  |  |  |  |  |  |  | 
4 | Eriodictyol sulfate [M13] | 16 | 12 | 16 | 10 |  | 4.6 ± 5.0 | 32.6 ± 36.5 | 14.6 ± 17.3 | 11.9 ± 12.6 | 1.5 ± 1.5 | 0.02 ± 0.01 | 0.6 ± 0.9 | 0.1 ± 0.1 | 0.2 ± 0.4 | 0.3 ± 0.4 | 6.12 ± 6.631 | 1710 ± 1510 | 5.7 ± 2.5
5 | Eriodictyol sulfoglucuronide [M9] | 5 | 0 | 15 | 0 |  |  |  |  |  |  |  |  |  |  |  |  |  | 
6 | Hesperetin sulfoglucuronide [M11] | 0 | 7 | 0 | 8 |  |  |  |  |  |  |  |  |  |  |  |  |  | 
7 | Homoeriodictyol glucuronide [M6] | 16 | 3 | 16 | 3 |  | 13.9 ± 16.2 | 106 ± 171 | 48.1 ± 90.0 | 37.2 ± 56.9 | 6.8 ± 8.0 |  |  |  |  |  | 3.133 ± 4.17 | 780 ± 863 | 6.1 ± 2.4
8 | Homoeriodictyol sulfate [M10] | 16 | 0 | 16 | 3 |  | 3.8 ± 3.2 |  | 4.0 ± 5.5 | 3.6 ± 4.1 | 0.5 ± 0.4 |  |  |  |  |  | 1.778 ± 2.257 | 479 ± 524 | 6.5 ± 2.2
